Assay results taken from ChEMBL document CHEMBL4800722, “Data for DCP probe BI 605906” (2021).

Tests used:
[1] = GPCRScan assay: inhibition of GABA/PBR; set-up: species or system Rattus norvegicus; radioligand conc. used [nm] 0.3 – 2.0, parental cells brain tissue
[2] = target: T1, AP2-associated protein kinase 1 (Homo sapiens, UniProt Q2M2I8); experiment: Dose response measurement (AAK1)
Target sequence in this assay (Q2M2I8 whole entry): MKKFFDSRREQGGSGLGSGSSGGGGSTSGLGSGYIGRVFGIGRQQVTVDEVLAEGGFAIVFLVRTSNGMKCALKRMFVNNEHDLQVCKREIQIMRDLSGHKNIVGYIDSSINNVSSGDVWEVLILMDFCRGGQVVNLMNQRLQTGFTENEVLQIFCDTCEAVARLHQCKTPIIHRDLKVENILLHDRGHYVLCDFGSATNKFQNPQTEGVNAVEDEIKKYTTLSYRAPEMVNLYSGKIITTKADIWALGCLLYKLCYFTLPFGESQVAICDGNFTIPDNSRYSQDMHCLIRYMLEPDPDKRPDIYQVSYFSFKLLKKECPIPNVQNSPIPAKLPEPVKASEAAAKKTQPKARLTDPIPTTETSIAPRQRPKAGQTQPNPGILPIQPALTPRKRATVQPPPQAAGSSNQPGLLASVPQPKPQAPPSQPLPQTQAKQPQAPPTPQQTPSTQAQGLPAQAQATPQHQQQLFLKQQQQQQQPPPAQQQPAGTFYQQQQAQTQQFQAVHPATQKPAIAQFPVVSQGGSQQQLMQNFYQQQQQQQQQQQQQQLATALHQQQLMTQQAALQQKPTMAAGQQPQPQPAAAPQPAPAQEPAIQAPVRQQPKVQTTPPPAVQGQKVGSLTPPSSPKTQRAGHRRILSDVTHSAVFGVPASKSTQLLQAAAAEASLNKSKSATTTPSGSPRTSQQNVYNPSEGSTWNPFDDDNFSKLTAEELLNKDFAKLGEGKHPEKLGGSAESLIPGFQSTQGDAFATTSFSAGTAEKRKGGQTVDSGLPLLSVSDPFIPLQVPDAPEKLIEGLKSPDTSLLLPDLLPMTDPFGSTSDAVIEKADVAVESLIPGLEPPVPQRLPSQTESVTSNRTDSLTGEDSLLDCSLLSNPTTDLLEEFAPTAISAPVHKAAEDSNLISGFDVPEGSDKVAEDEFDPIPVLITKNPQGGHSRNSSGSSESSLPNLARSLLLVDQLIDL

[3] = target: Nitric oxide synthase 3 (Rattus norvegicus) (UniProt Q62600); experiment: CNOS Eurofins SafetyScreen44 (BI); conditions: Compound concentration 10.0 uM
[4] = target: Cathepsin G (Homo sapiens) (UniProt P08311); experiment: PEPCATHEPSG Eurofins SafetyScreen44 (BI); conditions: Compound concentration 10.0 uM
Cathepsin G (Homo sapiens), sequence (P08311 whole entry): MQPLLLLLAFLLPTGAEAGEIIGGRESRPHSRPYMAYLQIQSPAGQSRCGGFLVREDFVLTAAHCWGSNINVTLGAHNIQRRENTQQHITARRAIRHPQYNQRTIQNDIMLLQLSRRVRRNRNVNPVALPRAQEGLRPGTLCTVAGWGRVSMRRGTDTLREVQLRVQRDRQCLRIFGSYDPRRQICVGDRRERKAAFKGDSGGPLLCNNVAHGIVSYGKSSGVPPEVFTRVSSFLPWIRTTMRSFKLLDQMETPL

[5] = target: Urotensin-2 receptor (Homo sapiens) (UniProt Q9UKP6); experiment: UROTENSIN_II Eurofins SafetyScreen44 (BI); conditions: Compound concentration 10.0 uM
[6] = target: Cyclin-dependent kinase-like 5 (Homo sapiens) (UniProt O76039); experiment: CDKL5 Invitrogen Lab (UK) kinase screen (BI); conditions: Compound concentration 1.0 uM
[7] = target: Phosphatidylinositol 5-phosphate 4-kinase type-2 alpha (Homo sapiens) (UniProt P48426); experiment: PIP4K2A Invitrogen Lab (UK) kinase screen (BI); conditions: Compound concentration 1.0 uM
[8] = target: Calcium/calmodulin-dependent protein kinase type IV (Homo sapiens) (UniProt Q16566); experiment: CAMK4 Invitrogen Lab (UK) kinase screen (BI); conditions: Compound concentration 1.0 uM
[9] = target: Dual specificity mitogen-activated protein kinase kinase 1 (Homo sapiens) (UniProt Q02750); experiment: MAP2K1 Invitrogen Lab (UK) kinase screen (BI)
Dual specificity mitogen-activated protein kinase kinase 1 (Homo sapiens), sequence (Q02750 whole entry): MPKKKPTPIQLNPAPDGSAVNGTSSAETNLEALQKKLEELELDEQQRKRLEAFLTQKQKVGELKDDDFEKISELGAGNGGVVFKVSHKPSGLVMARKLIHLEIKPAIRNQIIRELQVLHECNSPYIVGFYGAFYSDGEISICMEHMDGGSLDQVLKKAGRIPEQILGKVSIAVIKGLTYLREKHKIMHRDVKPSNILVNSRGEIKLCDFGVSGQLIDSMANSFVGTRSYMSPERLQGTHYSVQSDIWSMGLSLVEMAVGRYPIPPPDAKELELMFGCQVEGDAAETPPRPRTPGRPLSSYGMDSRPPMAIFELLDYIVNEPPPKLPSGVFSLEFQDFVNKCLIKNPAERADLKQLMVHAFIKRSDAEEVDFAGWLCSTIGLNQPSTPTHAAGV

[10] = target: NUAK family SNF1-like kinase 1 (Homo sapiens) (UniProt O60285); experiment: NUAK1 Invitrogen Lab (UK) kinase screen (BI); conditions: Compound concentration 1.0 uM
[11] = target: Proto-oncogene tyrosine-protein kinase receptor Ret (Homo sapiens) (UniProt P07949); experiment: RET Invitrogen Lab (UK) kinase screen (BI)
Proto-oncogene tyrosine-protein kinase receptor Ret (Homo sapiens), sequence (P07949 whole entry): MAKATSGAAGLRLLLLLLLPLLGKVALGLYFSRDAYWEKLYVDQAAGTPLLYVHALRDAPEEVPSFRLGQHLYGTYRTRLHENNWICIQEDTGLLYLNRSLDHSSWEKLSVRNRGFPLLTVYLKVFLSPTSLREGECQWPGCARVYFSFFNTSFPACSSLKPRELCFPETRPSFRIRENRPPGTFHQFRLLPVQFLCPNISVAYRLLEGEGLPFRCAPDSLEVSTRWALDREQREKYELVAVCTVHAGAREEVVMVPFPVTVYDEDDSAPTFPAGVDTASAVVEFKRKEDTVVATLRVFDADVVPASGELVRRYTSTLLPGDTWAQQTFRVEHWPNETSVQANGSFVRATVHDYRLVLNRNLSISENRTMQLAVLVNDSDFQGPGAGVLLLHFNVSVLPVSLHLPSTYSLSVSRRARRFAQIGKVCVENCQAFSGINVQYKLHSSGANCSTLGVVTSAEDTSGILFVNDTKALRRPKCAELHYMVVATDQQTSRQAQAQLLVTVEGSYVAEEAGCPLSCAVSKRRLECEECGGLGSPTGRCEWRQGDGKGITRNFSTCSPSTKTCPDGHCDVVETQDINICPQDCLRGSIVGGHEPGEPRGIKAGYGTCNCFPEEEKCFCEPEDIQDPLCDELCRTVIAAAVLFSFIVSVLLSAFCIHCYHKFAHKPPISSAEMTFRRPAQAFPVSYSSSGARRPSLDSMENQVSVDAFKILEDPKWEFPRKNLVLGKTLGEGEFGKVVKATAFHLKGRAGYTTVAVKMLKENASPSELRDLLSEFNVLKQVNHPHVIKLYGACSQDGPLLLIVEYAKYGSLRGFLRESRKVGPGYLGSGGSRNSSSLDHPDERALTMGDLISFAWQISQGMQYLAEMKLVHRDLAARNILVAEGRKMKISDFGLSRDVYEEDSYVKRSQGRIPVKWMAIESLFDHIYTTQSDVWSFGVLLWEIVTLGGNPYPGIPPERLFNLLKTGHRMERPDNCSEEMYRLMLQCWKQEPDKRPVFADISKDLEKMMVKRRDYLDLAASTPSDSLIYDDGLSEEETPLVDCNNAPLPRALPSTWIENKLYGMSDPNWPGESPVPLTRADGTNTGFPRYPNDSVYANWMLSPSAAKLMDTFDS

[12] = target: SRSF protein kinase 2 (Homo sapiens) (UniProt P78362); experiment: SRPK2 Invitrogen Lab (UK) kinase screen (BI); conditions: Compound concentration 1.0 uM
[13] = target: Dual specificity protein kinase TTK (Homo sapiens) (UniProt P33981); experiment: TTK Invitrogen Lab (UK) kinase screen (BI); conditions: Compound concentration 1.0 uM
[14] = target: Calcium/calmodulin-dependent protein kinase type 1 (Homo sapiens) (UniProt Q14012); experiment: CAMK1 DUNDEE kinase screen (BI); conditions: Compound concentration 10.0 uM
[15] = target: MAP kinase-activated protein kinase 2 (Homo sapiens) (UniProt P49137); experiment: MAPKAPK2 DUNDEE kinase screen (BI); conditions: Compound concentration 10.0 uM
[16] = target: D(1A) dopamine receptor (Homo sapiens) (UniProt P21728); conditions: Compound concentration 10.0 uM
[17] = target: Sodium-dependent serotonin transporter (Homo sapiens) (UniProt P31645); conditions: Compound concentration 10.0 uM
[18] = target: Beta-1 adrenergic receptor (Homo sapiens) (UniProt P08588); conditions: Compound concentration 10.0 uM
[19] = target: Calcitonin-gene-related peptide receptor, CALCRL/RAMP1 (Homo sapiens) (UniProt O60894+Q16602)
Chymase (Homo sapiens) = Chymase (Homo sapiens) (UniProt P23946); conditions: Compound concentration 10.0 uM
[20] = target: T1, AP2-associated protein kinase 1
Target sequence in this assay (Q2M2I8 whole entry, looked up): as the sequence (Q2M2I8 whole entry) above

[21] = target: CDK6/cyclin D1 (Homo sapiens) (UniProt P24385+Q00534); conditions: Compound concentration 1.0 uM
[22] = target: Interferon-induced, double-stranded RNA-activated protein kinase (Homo sapiens) (UniProt P19525); conditions: Compound concentration 1.0 uM
[23] = target: Mitogen-activated protein kinase kinase kinase 21 (Homo sapiens) (UniProt Q5TCX8); conditions: Compound concentration 1.0 uM
[24] = system: PI3-kinase p110-alpha/p85-alpha (Homo sapiens), P27986+P42336 [E545K]; conditions: Compound concentration 1.0 uM
[25] = target: Activin receptor type-2B (Homo sapiens) (UniProt Q13705); conditions: Compound concentration 1.0 uM
[26] = target: Cyclin-dependent kinase 2/cyclin A (Homo sapiens) (UniProt P24941+P20248+P78396); conditions: Compound concentration 1.0 uM
[27] = target: Cyclin-dependent kinase 5/CDK5 activator 1 (Homo sapiens) (UniProt Q00535+Q15078); conditions: Compound concentration 1.0 uM
[28] = target: CDK8/Cyclin C (Homo sapiens) (UniProt P49336+P24863); conditions: Compound concentration 1.0 uM
[29] = target: Discoidin domain-containing receptor 2 (Homo sapiens) (UniProt Q16832); conditions: Compound concentration 1.0 uM
[30] = target: Dual specificity tyrosine-phosphorylation-regulated kinase 1B (Homo sapiens) (UniProt Q9Y463)
Dual specificity tyrosine-phosphorylation-regulated kinase 1B (Homo sapiens), sequence (Q9Y463 whole entry, looked up): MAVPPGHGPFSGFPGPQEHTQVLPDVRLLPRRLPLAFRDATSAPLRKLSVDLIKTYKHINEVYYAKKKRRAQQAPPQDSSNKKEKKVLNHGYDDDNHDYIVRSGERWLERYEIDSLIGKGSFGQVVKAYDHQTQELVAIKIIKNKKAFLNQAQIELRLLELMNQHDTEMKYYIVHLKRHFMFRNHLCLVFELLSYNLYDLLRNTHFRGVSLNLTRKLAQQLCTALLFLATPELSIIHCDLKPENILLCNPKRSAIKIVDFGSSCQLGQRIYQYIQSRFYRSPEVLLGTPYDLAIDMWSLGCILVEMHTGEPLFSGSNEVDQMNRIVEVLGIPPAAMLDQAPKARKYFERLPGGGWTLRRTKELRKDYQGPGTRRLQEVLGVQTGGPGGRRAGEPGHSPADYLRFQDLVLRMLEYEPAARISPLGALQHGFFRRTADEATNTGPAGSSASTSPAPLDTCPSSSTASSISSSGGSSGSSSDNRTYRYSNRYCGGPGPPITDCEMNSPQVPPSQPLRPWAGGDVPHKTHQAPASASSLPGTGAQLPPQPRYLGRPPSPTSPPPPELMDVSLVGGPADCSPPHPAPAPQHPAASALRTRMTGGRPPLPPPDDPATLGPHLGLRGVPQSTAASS

[31] = target: G protein-coupled receptor kinase 5 (Homo sapiens) (UniProt P34947); conditions: Compound concentration 1.0 uM
[32] = target: Tyrosine-protein kinase JAK2 (Homo sapiens) (UniProt O60674); conditions: Compound concentration 1.0 uM
[33] = target: Mitogen-activated protein kinase 9 (Homo sapiens) (UniProt P45984); conditions: Compound concentration 1.0 uM
[34] = target: Platelet-derived growth factor receptor alpha (Homo sapiens) (UniProt P16234); conditions: Compound concentration 1.0 uM
[35] = target: Platelet-derived growth factor receptor beta (Homo sapiens) (UniProt P09619)
Platelet-derived growth factor receptor beta (Homo sapiens), sequence (P09619 whole entry): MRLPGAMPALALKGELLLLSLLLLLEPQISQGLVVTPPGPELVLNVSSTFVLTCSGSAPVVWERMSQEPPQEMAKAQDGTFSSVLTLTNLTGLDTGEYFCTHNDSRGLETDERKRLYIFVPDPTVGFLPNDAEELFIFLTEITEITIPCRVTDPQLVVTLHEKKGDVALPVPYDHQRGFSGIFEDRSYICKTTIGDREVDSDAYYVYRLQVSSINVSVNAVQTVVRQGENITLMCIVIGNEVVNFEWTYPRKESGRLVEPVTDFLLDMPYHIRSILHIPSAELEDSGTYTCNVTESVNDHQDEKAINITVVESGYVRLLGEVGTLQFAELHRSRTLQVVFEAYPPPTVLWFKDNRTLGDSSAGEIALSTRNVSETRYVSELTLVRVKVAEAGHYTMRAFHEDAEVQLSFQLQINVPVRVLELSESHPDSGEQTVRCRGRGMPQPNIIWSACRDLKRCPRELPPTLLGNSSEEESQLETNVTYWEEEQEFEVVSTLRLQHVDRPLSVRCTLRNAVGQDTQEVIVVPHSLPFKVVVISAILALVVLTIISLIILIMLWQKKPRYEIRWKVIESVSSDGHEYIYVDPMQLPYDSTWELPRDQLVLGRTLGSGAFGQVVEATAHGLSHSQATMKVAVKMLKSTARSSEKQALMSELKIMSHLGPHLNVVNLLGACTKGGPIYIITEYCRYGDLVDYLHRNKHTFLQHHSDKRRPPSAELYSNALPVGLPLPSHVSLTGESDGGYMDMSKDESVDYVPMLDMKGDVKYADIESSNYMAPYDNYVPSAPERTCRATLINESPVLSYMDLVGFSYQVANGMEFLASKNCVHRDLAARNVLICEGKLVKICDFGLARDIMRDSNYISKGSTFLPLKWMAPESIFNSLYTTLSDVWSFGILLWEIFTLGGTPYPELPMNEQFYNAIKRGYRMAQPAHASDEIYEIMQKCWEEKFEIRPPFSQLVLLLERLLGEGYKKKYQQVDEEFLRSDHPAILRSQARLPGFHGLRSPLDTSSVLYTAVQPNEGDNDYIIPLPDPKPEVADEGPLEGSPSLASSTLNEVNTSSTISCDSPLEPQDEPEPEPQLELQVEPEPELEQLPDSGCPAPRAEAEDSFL

[36] = target: 3-phosphoinositide-dependent protein kinase 1 (Homo sapiens) (UniProt O15530)
3-phosphoinositide-dependent protein kinase 1 (Homo sapiens), sequence (O15530 whole entry, looked up): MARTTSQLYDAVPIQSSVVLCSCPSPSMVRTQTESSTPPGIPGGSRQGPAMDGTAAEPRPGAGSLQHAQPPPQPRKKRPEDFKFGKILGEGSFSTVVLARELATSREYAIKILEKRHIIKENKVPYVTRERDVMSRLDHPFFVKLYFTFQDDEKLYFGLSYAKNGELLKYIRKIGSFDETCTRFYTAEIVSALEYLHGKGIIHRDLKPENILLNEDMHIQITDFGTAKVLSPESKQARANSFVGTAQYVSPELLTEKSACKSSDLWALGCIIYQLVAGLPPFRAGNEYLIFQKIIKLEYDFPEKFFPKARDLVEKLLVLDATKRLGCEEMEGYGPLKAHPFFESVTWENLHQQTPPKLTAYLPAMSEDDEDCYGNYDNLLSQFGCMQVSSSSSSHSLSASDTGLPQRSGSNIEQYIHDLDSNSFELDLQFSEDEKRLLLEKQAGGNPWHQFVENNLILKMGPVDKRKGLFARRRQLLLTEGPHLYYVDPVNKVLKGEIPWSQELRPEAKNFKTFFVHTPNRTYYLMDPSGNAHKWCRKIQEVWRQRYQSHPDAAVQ

[37] = target: Serine/threonine-protein kinase PLK2 (Homo sapiens) (UniProt Q9NYY3); conditions: Compound concentration 1.0 uM
[38] = target: Serine/threonine-protein kinase Sgk2 (Homo sapiens) (UniProt Q9HBY8); conditions: Compound concentration 1.0 uM
[39] = target: Tyrosine-protein kinase Srms (Homo sapiens) (UniProt Q9H3Y6); conditions: Compound concentration 1.0 uM
[40] = target: Serine/threonine-protein kinase TBK1 (Homo sapiens) (UniProt Q9UHD2); conditions: Compound concentration 1.0 uM
[41] = target: Non-receptor tyrosine-protein kinase TYK2 (Homo sapiens) (UniProt P29597); conditions: Compound concentration 1.0 uM
[42] = target: Mitogen-activated protein kinase kinase kinase 20 (Homo sapiens) (UniProt Q9NYL2); conditions: Compound concentration 1.0 uM

CCC(F)(F)c1cc(N2CCC(S(C)(=O)=O)CC2)nc2sc(C(N)=O)c(N)c12 [BI-605906]
Ki [1]: 2.62 µM
pKi [1]: 5.59
IC50 [2]: 0.272 µM
residual activity [3]: 102%
residual activity [4]: 106%
residual activity [5]: 107%
residual activity [6]: 103%
residual activity [7]: 115%
residual activity [8]: 103%
residual activity ([9]; Compound concentration 1.0 uM): 76%
residual activity ([9]; Compound concentration 10.0 uM): 80%
residual activity [10]: 84%
residual activity ([11]; Compound concentration 1.0 uM): 60%
residual activity ([11]; Compound concentration 10.0 uM): 32%
residual activity [12]: 103%
residual activity [13]: 75%
residual activity [14]: 78.4%
residual activity [15]: 94.5%
inhibition [16]: 25.7%
inhibition [17]: 8.94%
inhibition [18]: -8.38%
residual activity ([19]; Compound concentration 10.0 uM): 99%
residual activity ([19]; Compound concentration 100.0 uM): 96%
residual activity (Chymase (Homo sapiens)): 93%
residual activity ([20]; Compound concentration 0.001 uM): 101%
residual activity ([20]; Compound concentration 1.0 uM): 13%
residual activity ([20]; Compound concentration 20.0 uM): 4%
residual activity [21]: 100%
residual activity [22]: 96%
residual activity [23]: 97%
residual activity [24]: 100%
residual activity [25]: 91%
residual activity [26]: 90%
residual activity [27]: 99%
residual activity [28]: 82%
residual activity [29]: 99%
residual activity ([30]; Compound concentration 1.0 uM): 95%
residual activity ([30]; Compound concentration 10.0 uM): 91%
residual activity [31]: 96%
residual activity [32]: 94%
residual activity [33]: 98%
residual activity [34]: 93%
residual activity ([35]; Compound concentration 1.0 uM): 89%
residual activity ([35]; Compound concentration 10.0 uM): 87%
residual activity ([36]; Compound concentration 1.0 uM): 89%
residual activity ([36]; Compound concentration 10.0 uM): 101%
residual activity [37]: 96%
residual activity [38]: 99%
residual activity [39]: 99%
residual activity [40]: 96%
residual activity [41]: 93%
residual activity [42]: 97%
